# Source: article PMC3473092 (Science (New York, N.Y.), 2011)
# Entries after “also recorded” stand apart in the source; their conditions may differ. Read-outs that look alike come from different tables or passages of the source.
# What was measured:
# [1] = tested on: P. falciparum blood stages; assay: P. falciparum blood stage cultures in vitro; type: cell-based, Plasmodium falciparum; conditions: text b23, strain not given
# P. berghei sporozoites = assay: Rodent malaria model of causal prophylactic treatment; type: in vivo, Plasmodium berghei; conditions: for blood stage parasitemia in later blood smear examinations / in vivo bioluminescence signal of developing parasite: GNF179 15 mg/kg, atovaquone 2.5 mg/kg, treated at 6 hpi, Fig. 2D
# P. yoelii EEF = assay: P. yoelii liver-stage; type: cell-based, Plasmodium yoelii; conditions: for activity against EEFs (in words): P. yoelii liver assay; for efficacy when compound added 15 and 27 hours post-invasion: end-point 51 hpi, Fig. 2C; for Median parasite area: ±SD, DMSO control 160 to 180 μm^2, smallest size detected 9 μm^2; for IC50: Plasmodium yoelii, 48 h, read-out: P. yoelii EEF IC50
# Plasmodium berghei [2] = conditions: 100 mg/kg oral dose; cited from earlier work
# [3] = tested on: P. falciparum W2 parasites; assay: Blood-stage SYBR green assay, P. falciparum W2; type: cell-based; conditions: Plasmodium falciparum, W2, read-out: Blood IC50
# HepG2-A16-CD81EGFP cells = assay: HepG2-A16-CD81EGFP inhibition; type: cell-based; conditions: Homo sapiens, HepG2, read-out: HepG2 inhibition IC50
# Plasmodium berghei [4] = assay: P. berghei blood-stage mouse model, single oral dose; type: in vivo; conditions: for average survival times: mice infected with P. berghei, single oral dose at 100 mg/kg
# [5] = tested on: strains having mutations making them resistant to atovaquone and pyrimethamine; assay: Cross-resistance with strains resistant to liver-stage drugs; type: cell-based; conditions: Table S6
# [6] = mouse, in vivo, po
# [7] = tested on: parasite protein biosynthesis; assay: Parasite protein biosynthesis inhibition; type: cell-based; conditions: Fig. S4
# [8] = mouse
# [9] = 15 p.o. mg/kg, 1–3 hours prior to sporozoite injection
# [10] = 30 p.o. mg/kg, 1–3 hours prior to sporozoite injection
# [11] = 5 p.o. mg/kg, 1–3 hours prior to sporozoite injection
# [12] = 15 p.o. mg/kg, six hours after infection
compound,measurement,setting,value
C[C@H]1Cc2c([nH]c3cc(Cl)c(F)cc23)[C@@]2(N1)C(=O)Nc1ccc(Cl)cc12 [NITD609],potency against P. falciparum blood stages,[1],~ 1 nM
same,Average Survival (%),P. berghei sporozoites; [9],0%
same,Prepatent Period,P. berghei sporozoites; [9],4.5 days
same,Average Survival (%),P. berghei sporozoites; [10],0%
same,Prepatent Period,P. berghei sporozoites; [10],4.2 days
same,activity against EEFs (in words),P. yoelii EEF,inactive
same,cure in a blood-stage animal model,Plasmodium berghei [2],fully curative
CC[C@@H](C(=O)[C@@H](C)[C@@H](O)[C@H](C)CCc1ccc(C)c(O)c1C(=O)O)[C@H]1O[C@](CC)([C@H]2CC[C@](O)(CC)[C@H](C)O2)C[C@@H]1C [Lasalocid],IC50,[3],50 ± 8 nM
same,efficacy when compound added 15 and 27 hours post-invasion,P. yoelii EEF; 1 μM,remained active later in EEF development
same,Median parasite area,P. yoelii EEF; 1 μM,< 9 μm^2
same,Median parasite area,P. yoelii EEF; 10 μM,< 9 μm^2
same,activity against EEFs (in words),P. yoelii EEF,confirmed as active
same,IC50,P. yoelii EEF,37 ± 20 nM
same,IC50,HepG2-A16-CD81EGFP cells,3.9 ± 1.4 µM
CCc1nc(N)nc(N)c1-c1ccc(Cl)cc1 [Pyrimethamine],IC50,[3],15 ± 2 nM
same,efficacy when compound added 15 and 27 hours post-invasion,P. yoelii EEF; 1 μM,the parasites grew to normal size
same,Median parasite area,P. yoelii EEF; 1 μM,31.1±0.7 μm^2
same,Median parasite area,P. yoelii EEF; 10 μM,29.6±2.0 μm^2
same,activity against EEFs (in words),P. yoelii EEF,confirmed as active
same,IC50,P. yoelii EEF,2.4 ± 1.6 nM
same,IC50,HepG2-A16-CD81EGFP cells,6.3 ± 3.3 µM
CCN(CC)CCCC(C)Nc1ccnc2cc(Cl)ccc12 (stereo not shown) [Chloroquine],IC50,[3],84 ± 3 nM
same,Median parasite area,P. yoelii EEF; 1 μM,65.4±9.5 μm^2
same,Median parasite area,P. yoelii EEF; 10 μM,< 9 μm^2
same,IC50,P. yoelii EEF,1650 nM
same,average survival times,Plasmodium berghei [4],12.5 days
same,IC50,HepG2-A16-CD81EGFP cells,1.6 ± 0.3 µM
C[C@@H]1CC[C@H]2[C@@H](C)C(=O)O[C@@H]3O[C@@]4(C)CC[C@@H]1[C@]32OO4 [Artemisinin],IC50,[3],3.3 ± 0.4 nM
same,activity against EEFs (in words),P. yoelii EEF,inactive
same,IC50,P. yoelii EEF,> 10000 nM
same,IC50,HepG2-A16-CD81EGFP cells,> 10 µM
GNF179,potency against P. falciparum blood stages,[1],7 nM
same,Average Survival (%),P. berghei sporozoites; [11],20%
same,Prepatent Period,P. berghei sporozoites; [11],4.2 days
same,Average Survival (%),P. berghei sporozoites; [9],100%
same,Average Survival (%),P. berghei sporozoites; [12],80%
same,Prepatent Period,P. berghei sporozoites; [12],6.2 days
same,Average Survival (%),"P. berghei sporozoites; 20 p.o. mg/kg, 1–3 hours prior to sporozoite injection",100%
same,blood stage parasitemia in later blood smear examinations,P. berghei sporozoites,no blood stage parasitemia was detected
same,in vivo bioluminescence signal of developing parasite,P. berghei sporozoites,No luminescence signal was detected
same,cross-resistance,[5],no cross-resistance
same,efficacy when compound added 15 and 27 hours post-invasion,P. yoelii EEF; 1 μM,remained active later in EEF development
same,Cmax,[6]; 15 mg/kg,55 µM
same,Cmax,[6]; 100 mg/kg,193 µM
same,half-life in liver,[6]; 100 mg/kg,7 to 9 h
same,mouse survival prolonged by an average of,Plasmodium berghei [4]; single 100 mg/kg oral dose,19 days
same,reduction of Plasmodium berghei parasitemia levels,"Plasmodium berghei [4]; single 100 mg/kg oral dose, mice",99.7%
same,inhibition of parasite protein biosynthesis,[7],does not rapidly inhibit parasite protein biosynthesis
same,clearance CL,[8]; in vivo,22 mL/min/kg
same,clearance as share of hepatic blood flow in mice,[8]; in vivo,~ 25%
same,residence time MRT,[8]; in vivo,9 h
same,steady-state volume of distribution Vss,[8]; in vivo,11.8 L/kg
same,terminal half-life t1/2,[8]; in vivo,8.9 h
same,in vivo oral bioavailability,[8]; po,58%
CCCCCCCCCCOc1cc2c(O)c(C(=O)OCC)cnc2cc1OCC [Decoquinate],IC50,[3],0.25 ± 0.06 nM
same,Median parasite area,P. yoelii EEF; 1 μM,17.7±0.3 μm^2
same,Median parasite area,P. yoelii EEF; 10 μM,18.8±4.7 μm^2
same,IC50,P. yoelii EEF,0.16 ± 0.02 nM
same,IC50,HepG2-A16-CD81EGFP cells,> 10 µM
COc1cc(NC(C)CCCN)c2ncccc2c1 (stereo not shown) [Primaquine],IC50,[3],317 ± 60 nM
same,Median parasite area,P. yoelii EEF; 1 μM,56.8±15.6 μm^2
same,Median parasite area,P. yoelii EEF; 10 μM,< 9 μm^2
same,activity against EEFs (in words),P. yoelii EEF,confirmed as active
same,IC50,P. yoelii EEF,1160 nM
same,IC50,HepG2-A16-CD81EGFP cells,6.1 ± 1.9 µM
CO[C@@H]1C(=O)CC[C@]2(CO2)[C@@]1(O)[C@@]1(C)O[C@@H]1CC=C(C)C [Ovalicin],IC50,[3],> 10000 nM
same,Median parasite area,P. yoelii EEF; 1 μM,35.1±3.1 μm^2
same,Median parasite area,P. yoelii EEF; 10 μM,19.1±0.9 μm^2
same,effect on the infection ratio,P. yoelii EEF; Fig. 1E,no drug effect is seen; also recorded: no measurable effect
same,activity against EEFs (in words),P. yoelii EEF,confirmed as active
same,IC50,P. yoelii EEF,0.7 ± 0.3 nM
same,IC50,HepG2-A16-CD81EGFP cells,> 10 µM
O=C1C(O)=C([C@H]2CC[C@H](c3ccc(Cl)cc3)CC2)C(=O)c2ccccc21 [Atovaquone],IC50,[3],2.2 ± 0.4 nM
same,Average Survival (%),"P. berghei sporozoites; 2.5 p.o. mg/kg, 1–3 hours prior to sporozoite injection",100%
same,Average Survival (%),"P. berghei sporozoites; 2.5 p.o. mg/kg, six hours after infection",100%
same,blood stage parasitemia in later blood smear examinations,P. berghei sporozoites,no blood stage parasitemia was detected
same,in vivo bioluminescence signal of developing parasite,P. berghei sporozoites,No luminescence signal was detected
same,efficacy when compound added 15 and 27 hours post-invasion,P. yoelii EEF; 1 μM,remained active later in EEF development
same,Median parasite area,P. yoelii EEF; 1 μM,18.2±1.0 μm^2
same,Median parasite area,P. yoelii EEF; 10 μM,18.6±1.0 μm^2
same,activity against EEFs (in words),P. yoelii EEF,confirmed as active
same,IC50,P. yoelii EEF,9.4 ± 15 nM
same,IC50,HepG2-A16-CD81EGFP cells,9.5 ± 2.5 µM
COc1ccc2cc3[n+](cc2c1OC)CCc1cc2c(cc1-3)OCO2 [Berberine],IC50,[3],117 ± 9 nM
same,Median parasite area,P. yoelii EEF; 1 μM,46.4±7.0 μm^2
same,Median parasite area,P. yoelii EEF; 10 μM,22.4±2.3 μm^2
same,activity against EEFs (in words),P. yoelii EEF,confirmed as active
same,IC50,P. yoelii EEF,224 ± 152 nM
same,IC50,HepG2-A16-CD81EGFP cells,2.6 ± 0.5 µM
C[C@H]1[C@H](OC(=O)CCC(=O)O)O[C@@H]2O[C@@]3(C)CC[C@H]4[C@H](C)CC[C@@H]1[C@@]24OO3 [artesunate],average survival times,Plasmodium berghei [4],7 days
OC(c1cc(C(F)(F)F)nc2c(C(F)(F)F)cccc12)C1CCCCN1 (stereo not shown) [Mefloquine],IC50,[3],9.5 ± 10 nM
same,Median parasite area,P. yoelii EEF; 1 μM,65.4±4.7 μm^2
same,Median parasite area,P. yoelii EEF; 10 μM,< 9 μm^2
same,activity against EEFs (in words),P. yoelii EEF,marginal activity
same,IC50,P. yoelii EEF,3270 nM
same,IC50,HepG2-A16-CD81EGFP cells,3.1 ± 0.6 µM
C[C@@H]1C[C@@H]([C@H](O)CC2CC(=O)NC(=O)C2)C(=O)[C@@H](C)C1 [Cycloheximide],IC50,[3],366 ± 69 nM
same,Median parasite area,P. yoelii EEF; 1 μM,<9 μm^2
same,Median parasite area,P. yoelii EEF; 10 μM,<9 μm^2
same,IC50,HepG2-A16-CD81EGFP cells,0.22 ± 0.1 µM
